Results on two compounds are retold here after US11407822B2, “Treatment of fibrodysplasia ossificans progressiva” (REGENERON PHARMACEUTICALS, INC., priority 2014, dated 2022).

For experiment [1], the system named is Acvr1[R206H]COIN/+; Gt(ROSA26)SorCreERt2/+ mice. The experiment is described as follows: Example 2: ectopic bone formation in a mouse model of FOP after tamoxifen, in vivo μCT (ACVR1 kinase inhibitor). Conditions: for mice showing ectopic bone formation / size of ectopic bone lesions: 3 mg/kg twice daily for 4 weeks; for mice showing ectopic bone formation: 4 weeks post initiation of tamoxifen, μCT; for size of ectopic bone lesions: versus vehicle control group. From the text: (§1) ACVR1 and/or ACVR2 antagonists and variants or fragments thereof can also be screened for activity in an in vivo assay. For example, ACVR1 or ACVR2 antagonists or variants thereof can be screened for their ability to treat FOP in a mouse model of FOP (e.g., ability to decrease ectopic bone formation). Transgenic knock-in mice have been developed that carry a conditional allele encoding Acvr1[R206H]. These Acvr1^[R206H]COIN/+ mice are described in U.S. Ser. No. 14/207,320 and PCT/US2014/026582, which are incorporated by reference herein in its entirety. This allele expresses the R206H variant only after activation by Cre recombinase. This allows Cre-dependent activation of Acvr1[R206H] expression at specific tissues and at specific time by using different types of Cre driver lines. In this manner the resulting mice also bypass the perinatal lethality that has been observed with a non-regulated knock-in allele of Acvr1[R206H]. Activation of Acvr1[R206H] expression in young or in adult mice results in ectopic bone formation. […] Tamoxifen activates expression of Cre which then acts upon the Acvr1^[R206H]COIN/+ to convert it to Acvr1^[R206H]/+, thereby converting the genotype of the mice to mirror the genotype of the FOP patients that are ACVR1[R206H]. The Acvr1^[R206H] allele expresses Acvr1[R206H], and that is adequate to drive the development of FOP in the Acvr1^[R206H]/+; Gt(ROSA26)Sor^CreERt2/+ mice. This bypasses the embryonic lethality experienced with conventional Acvr1^[R206H] knock-in mice, Acvr1^tm1Emsh (http://www.informatics.jax.org/allele/key/828153). After tamoxifen treatment, the ACVR1, ACVR2A and/or ACVR2B antagonists or a control can be administered to the Acvr1^[R206H]COIN/+; Gt(ROSA26)Sor^CreERt2/+ mice and the animals monitored for ectopic bone formation. See Chakkalakal S A, et al. (20120 An Acvr1 R206H knock-in mouse has fibrodysplasia ossificans progressiva. J Bone Miner Res. 27(8):1746-56. This assay is described in detail in the Examples below.
16 Acvr1^[R206H]COIN/+; Gt(ROSA26)Sor^CreERt2/+ mice were given tamoxifen at 1 mg/mouse dose i.p. for eight days. Eight mice were treated with 3 mg/kg of the ACVR1 kinase inhibitor LDN-212854 (Mohedas et al. (2013) ACS Chem. Biol. 8:1291-1302) twice daily for 4 weeks. Eight mice were treated with vehicle control twice daily for 4 weeks. Mice were monitored using in vivo μCT at baseline, 2 and 4 weeks post initiation of tamoxifen administration.

Experiment [2] deals with T1, Activin A binding to ACVR2A or ACVR2B (Homo sapiens, UniProt P08476).
T1 sequence (P08476 311-426): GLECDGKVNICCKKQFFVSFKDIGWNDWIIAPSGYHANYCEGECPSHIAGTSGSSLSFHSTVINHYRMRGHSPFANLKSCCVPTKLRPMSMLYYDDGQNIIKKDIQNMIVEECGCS
To be noted: as described for the antibody in US2015/0037339 or U.S. Pat. No. 8,309,082; cited from earlier work.

In experiment [3] the test system is Activin A mediated signaling through ACVR2A and/or ACVR2B. Conditions: as described for the antibody in US2015/0037339 or U.S. Pat. No. 8,309,082; cited from earlier work.
Experiment [4] has as its system Acvr1[R206H]COIN/+; Gt(ROSA26)SorCreERt2/+ mice. The experiment is described as follows: Example 4: ectopic bone formation in a mouse model of FOP after tamoxifen, in vivo μCT (Activin A antibody, Acvr2a/Acvr2b antibody). To be noted: for protection from / inhibition of ectopic bone formation after tamoxifen treatment: mouse, in vivo.
Source text: as §1, with “See Chakkalakal S A, et al. (20120 An Acvr1 R206H knock-in mouse has fibrodysplasia ossificans progressiva. J Bone Miner Res. 27(8):1746-56. This assay is described in detail in the Examples below.” left out
26 Acvr1[R206H]COIN/+; Gt(ROSA26)SorCreERt2/+ mice were given with tamoxifen at a 40 mg/kg dose i.p. for eight days. […] Mice were monitored using in vivo μCT at baseline, 2, 3 and 4 weeks post initiation of tamoxifen administration. […]

For experiment [5] the test system is unchanged. The experiment in a line: Example 3: ectopic bone formation in a mouse model of FOP after tamoxifen, in vivo μCT (Activin A antibody, ACVR2a-Fc). An excerpt:
ACVR1 and/or ACVR2 antagonists and variants or fragments thereof can also be screened for activity in an in vivo assay. For example, ACVR1 or ACVR2 antagonists or variants thereof can be screened for their ability to treat FOP in a mouse model of FOP (e.g., ability to decrease ectopic bone formation). Transgenic knock-in mice have been developed that carry a conditional allele encoding Acvr1[R206H]. These Acvr1^[R206H]COIN/+ mice are described in U.S. Ser. No. 14/207,320 and PCT/US2014/026582, which are incorporated by reference herein in its entirety. This allele expresses the R206H variant only after activation by Cre recombinase. This allows Cre-dependent activation of Acvr1[R206H] expression at specific tissues and at specific time by using different types of Cre driver lines. […] After tamoxifen treatment, the ACVR1, ACVR2A and/or ACVR2B antagonists or a control can be administered to the Acvr1^[R206H]COIN/+; Gt(ROSA26)Sor^CreERt2/+ mice and the animals monitored for ectopic bone formation. […]
23 Acvr1^[R206H]COIN/+; Gt(ROSA26)^SorCreERt2/+ mice were treated with tamoxifen at 1 mg/mouse dose i.p. for eight days. […] Mice were monitored using in vivo micro computer tomography (μCT) at baseline, 2 and 3 weeks post initiation of tamoxifen administration. […]

For experiment [6] the test system is unchanged. The experiment in a line: Example 5: ectopic bone formation in a mouse model of FOP after tamoxifen, in vivo μCT, dose comparison of Activin A antibody. Conditions: for mice that developed ectopic bone: nine mice, after 4 weeks, μCT; for average total volume of ectopic bone: at 6.5 weeks, calculated from μCT images.
Source text: as §1
35 Acvr1[R206H]COIN/+; Gt(ROSA26)SorCreERt2/+ mice were given with tamoxifen at 40 mg/kg i.p. for eight days. Eight mice were treated with 25 mg/kg isotype control antibody (REGN1945), nine mice were treated with 25 mg/kg of Activin A antibody (H4H10446P) (REGN2477), nine mice were treated with 10 mg/kg of Activin A antibody (REGN2477) and nine mice were treated with 1 mg/kg of Activin A antibody (REGN2477) weekly for 6 weeks. Mice were monitored using in vivo μCT at baseline, 2, 3, 4 and 6.5 weeks post initiation of tamoxifen administration. The volume of ectopic bone in each mouse was calculated from μCT images. […] At 6.5 weeks the average total volume of ectopic bone in the isotype treated group was 65.4 mm3 compared to 1.87 mm^3 in the 25 mg/kg, 0.3 mm^3 in the 10 mg/kg and 7.3 mm^3 in the 1 mg/kg Activin antibody treated groups.

`c1cc(-c2cnn3cc(-c4ccc(N5CCNCC5)cc4)cnc23)c2cccnc2c1` [LDN-212854]: in experiment [1], the “mice showing ectopic bone formation” value is listed as 3 out of 8 and the “size of ectopic bone lesions” value was “small compared to the vehicle control group”. In experiment [1] (listed as LDN212854), the “mice showing ectopic bone formation” value is listed as “No ectopic bone nodules could be detected in mice numbered 10, 11, 14, 15 or 16”; the “size of ectopic bone lesions” value was “Small ectopic bone nodules have formed in mice numbered 9, 12 and 13”. For the same compound, in experiment [1] (LDN-212854 treatment), the “protection from ectopic bone formation after tamoxifen treatment” value was “protected from ectopic bone formation”.
As for “H4H10446P: Antibody against Activin A designated H4H10446P in US2015037339; heavy and light chain variable regions present SEQ ID NOs:1 and 5”, the “inhibition of Activin A binding to ACVR2A and/or ACVR2B” value in experiment [2] is “does not inhibit strongly, if at all”. The “inhibition of Activin A signal transduction through ACVR2A and/or ACVR2B” value in experiment [3] is given as “inhibits Activin A mediated signaling through ACVR2A and/or ACVR2B”. Besides, the “mice that developed ectopic bone” value in experiment [4] (10 mg/kg twice weekly, nine mice per group, 4 weeks post initiation of tamoxifen, μCT) is reported as “one”; in experiment [6] (1 mg/kg weekly), 2 mice; in experiment [6] (10 mg/kg weekly), 2 mice; in experiment [6] (25 mg/kg weekly), 2 mice. In addition, the entries for the “protection from / inhibition of ectopic bone formation after tamoxifen treatment” value in experiment [4] (listed as Activin A) and in experiment [4] (listed as antibody against Activin A) were “protected from ectopic bone formation” and “inhibited formation of ectopic bone nodules”, respectively. The “mice showing development of ectopic bone” value in experiment [5] (25 mg/kg twice weekly, eight mice, 3 weeks post initiation of tamoxifen, μCT) is on record as “none”. Also, the “inhibition of formation of ectopic bone nodules (FIG. 3)” value in experiment [5] (compared with isotype control antibody and ACVR2A-Fc) is “inhibited formation of ectopic bone nodules most effectively”. Besides, the “average total volume of ectopic bone” value was 7.3 mm^3 in experiment [6] (1 mg/kg weekly), 0.3 mm^3 in experiment [6] (10 mg/kg weekly) and 1.87 mm^3 in experiment [6] (25 mg/kg weekly). Further, in experiment [6] (doses 1, 10 and 25 mg/kg versus isotype control antibody), the “effectiveness of varying doses against ectopic bone formation (FIG. 5)” value is “Dosages between 1 mg/kg and 25 mg/kg were shown to be effective with 10 mg/kg being the most effective dose tested”. In addition, in experiment [6] (mouse, in vivo), the “protection from ectopic bone formation after tamoxifen treatment” value is on record as “protected from ectopic bone formation”.
